Earlier results as cited in patent publication US7208285B2 (priority 2001, dated 2007).

Molecular target: BoNT/A (Clostridium botulinum, UniProt P0DPI1)
Sequence (P0DPI1 whole entry, looked up): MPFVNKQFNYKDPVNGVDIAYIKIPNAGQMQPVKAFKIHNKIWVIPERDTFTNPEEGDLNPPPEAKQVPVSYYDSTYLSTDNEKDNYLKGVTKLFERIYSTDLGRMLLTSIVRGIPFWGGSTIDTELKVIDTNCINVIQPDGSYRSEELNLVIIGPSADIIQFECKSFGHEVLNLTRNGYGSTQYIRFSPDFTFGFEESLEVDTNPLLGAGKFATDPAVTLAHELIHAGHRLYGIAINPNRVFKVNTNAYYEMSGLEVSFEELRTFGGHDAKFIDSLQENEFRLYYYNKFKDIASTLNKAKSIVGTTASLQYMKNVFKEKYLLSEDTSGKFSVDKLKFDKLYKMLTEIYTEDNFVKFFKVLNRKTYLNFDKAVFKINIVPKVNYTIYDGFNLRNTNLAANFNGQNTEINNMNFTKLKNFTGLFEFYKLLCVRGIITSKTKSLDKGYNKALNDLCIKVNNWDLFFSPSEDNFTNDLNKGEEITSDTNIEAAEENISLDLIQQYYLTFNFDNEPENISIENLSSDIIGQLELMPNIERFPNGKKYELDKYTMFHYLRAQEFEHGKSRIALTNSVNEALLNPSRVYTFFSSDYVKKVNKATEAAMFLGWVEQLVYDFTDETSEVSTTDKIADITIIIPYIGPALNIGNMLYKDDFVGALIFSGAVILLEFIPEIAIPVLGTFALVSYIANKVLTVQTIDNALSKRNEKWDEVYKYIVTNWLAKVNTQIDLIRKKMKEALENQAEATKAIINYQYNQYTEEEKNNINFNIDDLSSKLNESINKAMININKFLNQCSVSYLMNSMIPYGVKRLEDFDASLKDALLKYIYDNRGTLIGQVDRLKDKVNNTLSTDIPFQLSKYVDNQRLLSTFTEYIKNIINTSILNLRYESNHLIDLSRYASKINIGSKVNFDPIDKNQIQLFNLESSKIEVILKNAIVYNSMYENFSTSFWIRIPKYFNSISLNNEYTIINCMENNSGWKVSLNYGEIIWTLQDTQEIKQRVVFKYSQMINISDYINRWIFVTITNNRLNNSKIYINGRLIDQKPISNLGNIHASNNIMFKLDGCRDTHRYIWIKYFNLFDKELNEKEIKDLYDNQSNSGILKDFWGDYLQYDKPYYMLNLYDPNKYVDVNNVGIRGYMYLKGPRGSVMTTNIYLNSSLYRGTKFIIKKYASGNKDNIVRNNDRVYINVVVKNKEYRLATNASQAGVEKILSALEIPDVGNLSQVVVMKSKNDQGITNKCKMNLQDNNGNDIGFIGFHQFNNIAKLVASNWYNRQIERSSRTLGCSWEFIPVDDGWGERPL

Sequence | Relative Rate | relative rate of proteolysis
SNKTRIDEAAQRATKML [Peptide N10A] | 0.06 | –
SNKTRIDEANARATKML [Peptide Q11A] | 0.19 | 0.19
SNKTRIDEANBRATKML [Peptide Q11B] | 0.25 | 0.25
SNKTRIDEANNRATKML [Peptide Q11N] | 0.66 | 0.66
SNKTRIDEANQRABKML [Peptide T14B] | 1.20 | 1.20
SNKTRIDEANQRASKML [Peptide T14S] | 0.26 | 0.26
SNKTRIDEANQRATAML [Peptide K15A] | 0.12 | 0.12
SNKTRIDEANQRATK [[1–15]] | 0.03 | –
SNKTRIDEANQRATKAL [Peptide M16A] | 0.38 | 0.38
SNKTRIDEANQRATKML [[1–17]] | 1.00 | –
SNKTRIDEANQRATKXL [Peptide M16X] | 1.20 | 1.20
SNKTRIDEANQRBTKML [Peptide A13B] | 0.79 | 0.79
SNKTRIDEBNQRATKML [Peptide A9B] | 0.38 | 0.38
SNKTRIDQANQRATKML [Peptide E8Q] | 2.08 | 2.08
SNKTRINEANQRATKML [Peptide D7N] | 0.23 | 0.23
SNKTRTDEANQRATKM [[1–16]] | 1.17 | –
